# Values of other authors as cited in patent US20040191926A1 (priority 2001, published 2004).
# Where a chain is given by its changes, count along the chain named. Like-named read-outs stand apart in the source and are kept apart here. Where no end group is shown, it is not given here. [ ]: non-standard residue; d: D form. F2Pmp = N[C@@H](Cc1ccc(C(F)(F)P(=O)(O)O)cc1)C(=O)O
# Experiments:
# PTP1B [1] = molecular target: T1, PTP1B (Homo sapiens, UniProt P18031); conditions: as PTP1B substrate (ref. 31); cited from earlier work
# T1 sequence (P18031 1-435): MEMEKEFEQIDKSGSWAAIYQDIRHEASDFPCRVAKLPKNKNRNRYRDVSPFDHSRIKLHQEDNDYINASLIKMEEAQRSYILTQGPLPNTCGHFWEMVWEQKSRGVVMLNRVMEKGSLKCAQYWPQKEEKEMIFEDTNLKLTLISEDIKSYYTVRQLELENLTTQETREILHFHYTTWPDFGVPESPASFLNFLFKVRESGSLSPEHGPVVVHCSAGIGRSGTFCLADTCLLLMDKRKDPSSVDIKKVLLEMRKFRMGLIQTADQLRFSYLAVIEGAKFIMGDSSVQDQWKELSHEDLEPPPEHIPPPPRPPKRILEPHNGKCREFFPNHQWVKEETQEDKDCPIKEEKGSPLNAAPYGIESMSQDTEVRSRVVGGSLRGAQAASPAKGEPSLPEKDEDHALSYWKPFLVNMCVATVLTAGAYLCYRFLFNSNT
# PTP1B [2] = molecular target: T1, PTP1B; conditions: isothermal titration calorimetry, ionic strength of 0.15 M (ref. 33); cited from earlier work
# PTP1B [3] = molecular target: T1, PTP1B; conditions: cited from earlier work
# PTP1B/C215S = molecular target: T2, PTP1B/C215S (Homo sapiens, UniProt P18031, C215S); conditions: isothermal titration calorimetry, pH 7.0 and 25° C.; cited from earlier work
# T2 sequence (P18031 1-435 C215S): T1 sequence (P18031 1-435) with C215S
compound,measurement,setting,value
O=P(O)(O)Oc1ccc(Cc2ccc(OP(=O)(O)O)cc2)cc1,Km,PTP1B [1],16 µM
same,kcat,PTP1B [1],6.9 s⁻¹
DADE[F2Pmp]L-NH2,Kd,PTP1B [2],240 nM
same,Ki,PTP1B [3],200 nM
same,potency relative to the same peptide containing phosphonomethyl phenylalanine (Pmp),PTP1B [3],over 1000 times
same,Ki,"PTP1B [3]; enzyme inhibition, ionic strength of 0.15 M (ref. 33)",250 nM
same,IC50,"PTP1B [3]; low ionic strength: pH 6.3, 50 mM Bis-Tris, 2 mM EDTA, 5 mM DTT buffer (ref. 38)",30 nM
same,Ki,"PTP1B [3]; low ionic strength: pH 7.3 in 50 mM Hepes, 5 mM DTT and 10 mg/mL BSA buffer (ref. 37)",26 nM
Ac-DADEpYL-NH2 [pTyr-containing hexapeptide PTP1B substrate],Kd,PTP1B/C215S,800 ± 100 nM
